The record followed here is US8921376B2, “Pyrrolopyridines useful as inhibitors of protein kinase” (Vertex Pharmaceuticals Incorporated, priority 2005, dated 2014).

Holding throughout (type): biochemical
For one experiment, the target named is T1, JAK3 (Homo sapiens, UniProt P52333).
T1 sequence (P52333 1-1124): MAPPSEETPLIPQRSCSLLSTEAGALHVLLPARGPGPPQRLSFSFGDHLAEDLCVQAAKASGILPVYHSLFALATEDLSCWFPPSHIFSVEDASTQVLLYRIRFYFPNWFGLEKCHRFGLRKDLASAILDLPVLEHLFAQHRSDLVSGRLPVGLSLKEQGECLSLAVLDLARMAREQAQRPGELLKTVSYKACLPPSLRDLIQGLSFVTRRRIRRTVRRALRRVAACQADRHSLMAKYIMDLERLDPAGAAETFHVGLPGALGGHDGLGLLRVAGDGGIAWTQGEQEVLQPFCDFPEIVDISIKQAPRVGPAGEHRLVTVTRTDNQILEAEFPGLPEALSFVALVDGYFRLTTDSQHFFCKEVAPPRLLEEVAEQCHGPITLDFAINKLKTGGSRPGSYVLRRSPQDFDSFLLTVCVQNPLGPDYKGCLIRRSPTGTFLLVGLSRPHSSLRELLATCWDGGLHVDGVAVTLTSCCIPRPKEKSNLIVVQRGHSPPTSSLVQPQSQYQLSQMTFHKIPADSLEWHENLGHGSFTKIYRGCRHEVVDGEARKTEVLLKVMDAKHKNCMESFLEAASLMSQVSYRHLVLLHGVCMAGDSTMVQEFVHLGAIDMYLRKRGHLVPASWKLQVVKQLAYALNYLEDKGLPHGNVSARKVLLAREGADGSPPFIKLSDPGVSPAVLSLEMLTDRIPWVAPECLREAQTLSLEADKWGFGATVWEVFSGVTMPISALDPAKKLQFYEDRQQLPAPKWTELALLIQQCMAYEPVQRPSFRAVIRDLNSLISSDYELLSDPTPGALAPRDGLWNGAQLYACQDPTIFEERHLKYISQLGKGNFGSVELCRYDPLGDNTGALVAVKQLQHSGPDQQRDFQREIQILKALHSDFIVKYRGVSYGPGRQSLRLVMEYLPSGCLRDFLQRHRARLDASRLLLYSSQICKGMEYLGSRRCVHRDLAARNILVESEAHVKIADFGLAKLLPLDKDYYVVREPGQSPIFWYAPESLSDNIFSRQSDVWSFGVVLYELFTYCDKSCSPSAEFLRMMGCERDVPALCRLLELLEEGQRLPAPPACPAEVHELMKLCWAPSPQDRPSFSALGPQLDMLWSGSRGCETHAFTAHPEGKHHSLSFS
Put plainly: JAK3 inhibition assay (33P incorporation into poly(Glu)4Tyr). The method, boiled down:
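Human JAK3 at 1 nM phosphorylated 1 μM poly(Glu)4Tyr using 5 μM [33P]ATP in HEPES pH 7.4 buffer with MgCl2, DTT and BSA. Reactions ran 20 min at 25° C. and were stopped with TCA. 33P incorporation was measured by scintillation after glass-fiber filter capture.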

For the next experiment, the target named is JAK2 (Homo sapiens, UniProt O60674). The experiment can be described thus: JAK2 inhibition assay (as Example 3 with JAK-2 enzyme). An outline of the steps:
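Radiometric JAK2 kinase assay: poly(Glu)4Tyr substrate at final 15 μM, ATP at final 12 μM with [33P]; buffer 100 mM HEPES pH 7.4, 1 mM DTT, 10 mM MgCl2, 25 mM NaCl, 0.01% BSA. 20 min at 25 °C, TCA-stopped, 33P incorporation counted after filter capture.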

A further experiment concerns the target ROCK I (Homo sapiens, UniProt Q13464). The experiment can be described thus: ROCK-I inhibition assay (radioactive enzyme assay, MBP substrate). An outline of the steps: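 Human ROCK at 5 nM phosphorylated 27 μM myelin basic protein with 13 μM [γ-33P]ATP (final) in HEPES pH 7.5, MgCl2, NaCl, DTT and 1.5% DMSO. Reactions ran 2 h at room temperature before TCA quench and filter-plate scintillation counting. After background subtraction, data were fit to give Ki(app).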

Setting [1] is: Table 6, enzyme inhibition data (Ki).
[2] abbreviates: enzyme inhibition, Ki(app), Table 5.

Each structure is given as a SMILES string.

Chain of ROCK I (Q13464 whole entry): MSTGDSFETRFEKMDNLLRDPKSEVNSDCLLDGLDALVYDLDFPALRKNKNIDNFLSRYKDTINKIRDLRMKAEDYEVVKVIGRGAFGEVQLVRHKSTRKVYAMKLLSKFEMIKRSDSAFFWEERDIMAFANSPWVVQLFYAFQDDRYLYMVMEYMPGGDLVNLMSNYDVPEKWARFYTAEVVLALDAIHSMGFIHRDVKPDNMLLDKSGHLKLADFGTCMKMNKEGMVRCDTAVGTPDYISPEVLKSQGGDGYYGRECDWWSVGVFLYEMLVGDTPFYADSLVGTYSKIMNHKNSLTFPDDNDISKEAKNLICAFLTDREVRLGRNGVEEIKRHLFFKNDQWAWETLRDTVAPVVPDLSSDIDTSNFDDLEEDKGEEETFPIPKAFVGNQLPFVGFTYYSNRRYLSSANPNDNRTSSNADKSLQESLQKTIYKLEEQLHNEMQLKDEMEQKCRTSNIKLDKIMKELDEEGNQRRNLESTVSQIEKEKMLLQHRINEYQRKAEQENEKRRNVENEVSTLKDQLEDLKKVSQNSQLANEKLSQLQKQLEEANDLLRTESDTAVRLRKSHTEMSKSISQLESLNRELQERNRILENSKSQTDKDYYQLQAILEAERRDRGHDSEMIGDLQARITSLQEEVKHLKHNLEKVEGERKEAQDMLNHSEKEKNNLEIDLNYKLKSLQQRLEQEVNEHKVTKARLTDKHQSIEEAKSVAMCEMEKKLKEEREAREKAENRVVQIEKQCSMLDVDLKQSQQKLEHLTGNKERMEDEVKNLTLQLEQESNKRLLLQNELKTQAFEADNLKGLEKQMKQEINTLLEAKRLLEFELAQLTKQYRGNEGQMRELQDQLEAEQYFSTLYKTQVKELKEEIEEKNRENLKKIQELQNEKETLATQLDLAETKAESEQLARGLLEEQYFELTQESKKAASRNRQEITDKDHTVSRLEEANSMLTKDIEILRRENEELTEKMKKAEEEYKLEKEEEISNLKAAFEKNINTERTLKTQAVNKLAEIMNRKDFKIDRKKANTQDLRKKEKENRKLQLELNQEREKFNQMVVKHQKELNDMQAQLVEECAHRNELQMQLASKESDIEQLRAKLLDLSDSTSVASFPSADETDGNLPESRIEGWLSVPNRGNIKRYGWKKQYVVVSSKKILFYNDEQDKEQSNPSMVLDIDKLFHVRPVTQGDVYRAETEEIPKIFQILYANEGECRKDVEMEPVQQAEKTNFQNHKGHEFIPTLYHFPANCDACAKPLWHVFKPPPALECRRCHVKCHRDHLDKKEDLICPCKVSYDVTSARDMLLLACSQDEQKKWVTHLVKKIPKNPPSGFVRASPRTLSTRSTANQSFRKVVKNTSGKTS
Chain of JAK2 (O60674 whole entry): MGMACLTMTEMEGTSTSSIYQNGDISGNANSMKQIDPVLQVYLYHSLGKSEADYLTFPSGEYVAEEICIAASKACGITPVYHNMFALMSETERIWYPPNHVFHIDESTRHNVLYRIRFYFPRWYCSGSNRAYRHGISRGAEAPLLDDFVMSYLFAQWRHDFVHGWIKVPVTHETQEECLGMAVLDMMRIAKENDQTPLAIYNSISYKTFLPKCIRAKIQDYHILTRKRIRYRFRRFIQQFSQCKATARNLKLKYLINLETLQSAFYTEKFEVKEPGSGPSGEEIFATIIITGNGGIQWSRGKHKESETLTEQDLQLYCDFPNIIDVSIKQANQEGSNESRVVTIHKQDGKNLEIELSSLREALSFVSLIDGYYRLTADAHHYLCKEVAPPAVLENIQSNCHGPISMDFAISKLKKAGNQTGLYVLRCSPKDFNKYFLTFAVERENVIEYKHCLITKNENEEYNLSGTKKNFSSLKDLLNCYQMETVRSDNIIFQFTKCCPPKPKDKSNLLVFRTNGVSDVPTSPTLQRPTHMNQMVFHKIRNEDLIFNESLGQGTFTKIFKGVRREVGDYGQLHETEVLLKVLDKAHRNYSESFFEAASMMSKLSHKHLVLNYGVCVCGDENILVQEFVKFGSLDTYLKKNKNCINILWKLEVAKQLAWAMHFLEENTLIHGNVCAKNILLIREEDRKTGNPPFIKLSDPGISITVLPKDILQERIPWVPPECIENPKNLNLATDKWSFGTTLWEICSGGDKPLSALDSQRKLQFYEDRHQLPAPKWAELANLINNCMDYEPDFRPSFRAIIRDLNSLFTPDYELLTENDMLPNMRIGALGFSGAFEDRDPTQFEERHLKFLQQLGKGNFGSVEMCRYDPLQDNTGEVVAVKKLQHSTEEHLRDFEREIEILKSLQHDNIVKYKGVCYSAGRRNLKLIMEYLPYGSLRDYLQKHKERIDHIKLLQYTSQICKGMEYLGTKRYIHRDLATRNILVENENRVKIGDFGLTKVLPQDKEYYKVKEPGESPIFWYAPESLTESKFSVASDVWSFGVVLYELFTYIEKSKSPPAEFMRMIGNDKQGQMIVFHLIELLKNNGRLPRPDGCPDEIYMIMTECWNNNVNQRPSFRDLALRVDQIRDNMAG

`Clc1cnc2[nH]ccc2c1N[C@@H]1C[C@H]2CC[C@@H]1C2` [compound 150]: the Ki on JAK3 (setting [1]), on JAK2 (setting [1]) and on ROCK I (setting [1]) was < 500 nM each time.

As to `O=C(c1csc(-c2ccnc3[nH]ccc23)n1)N1CCC(CO)CC1` [compound 411], the Ki on JAK3 (setting [1]), at JAK2 (setting [1]) and on ROCK I (setting [1]) was 500 to 5000 nM in each case.

Take `O=C(Nc1ccccc1)c1cc(-c2ccnc3[nH]ccc23)c[nH]1` [compound 275]: the Ki at JAK3 (setting [1]), on JAK2 (setting [1]) and at ROCK I (setting [1]) was < 500 nM in each case.

Turning to `O=C(NC1CC1)c1ccc(-c2ccnc3[nH]ccc23)cc1` [compound 270], the Ki at JAK3 (setting [1]) was 500 to 5000 nM; on JAK2 (setting [1]), < 500 nM; at ROCK I (setting [1]) it was 500 to 5000 nM.

Turning to `N#CCC(=O)N1CCCC(Nc2c(Cl)cnc3[nH]ccc23)C1` (stereo not drawn) [compound 188], the Ki was < 500 nM on JAK3 (setting [1]), < 500 nM on JAK2 (setting [1]) and 500 to 5000 nM on ROCK I (setting [1]).

Take `COc1ccc(-c2ccnc3[nH]ccc23)c(OC)c1` [compound 220]: the Ki on JAK3 (setting [1]), on JAK2 (setting [1]) and at ROCK I (setting [1]) was 500 to 5000 nM in each case.

With `N#Cc1ccc(Nc2c(Cl)cnc3[nH]ccc23)c(Cl)c1` [compound 163], the Ki on JAK3 (setting [1]) was < 500 nM; on JAK2 (setting [1]), < 500 nM; on ROCK I (setting [1]), > 4000 nM.

As to `CN(CCC#N)C(=O)c1ccc(-c2ccnc3[nH]ccc23)s1` [compound 322], the Ki at JAK3 (setting [1]), on JAK2 (setting [1]) and on ROCK I (setting [1]) was < 500 nM each time.

With `CCCOC(=O)N1CC[C@@H](Nc2c(Cl)cnc3[nH]ccc23)C1` [compound 171], the Ki was < 500 nM at JAK3 (setting [1]), < 500 nM at JAK2 (setting [1]) and 500 to 5000 nM on ROCK I (setting [1]).

In the case of `COC(=O)N1CCCC(Nc2c(Cl)cnc3[nH]ccc23)C1` (stereo not drawn) [compound 173], the Ki on JAK3 (setting [1]) is < 500 nM; at JAK2 (setting [1]) it was < 500 nM; at ROCK I (setting [1]), 500 to 5000 nM.

`Clc1cnc2[nH]ccc2c1-c1cc2ccccc2o1` [compound 138]: the Ki on JAK3 (setting [1]) was < 500 nM; on JAK2 (setting [1]), < 500 nM; on ROCK I (setting [1]), > 4000 nM.

`CN(CCO)c1cccc(-c2c(Cl)cnc3[nH]ccc23)n1` [compound 77]: the Ki is < 500 nM on JAK3 (enzyme inhibition, Table 5); < 500 nM on JAK2 (enzyme inhibition, Table 5); 500 to 5000 nM on ROCK I (setting [2]).

Consider `CCCN(CC1CC1)C(=O)c1cc(-c2c(F)cnc3[nH]ccc23)c[nH]1` [compound 392], for which the Ki at JAK3 (setting [1]) was < 500 nM; on JAK2 (setting [1]), < 500 nM; on ROCK I (setting [1]), 500 to 5000 nM.

`CCCCN(CCC#N)C(=O)c1cc(-c2c(F)cnc3[nH]ccc23)c[nH]1` [compound 397]: the Ki on JAK3 (setting [1]), on JAK2 (setting [1]) and on ROCK I (setting [1]) was < 500 nM throughout.

As to `CCCNC(=O)c1cccc(-c2ccnc3[nH]ccc23)c1` [compound 256], the Ki is 500 to 5000 nM on JAK3 (setting [1]), > 5000 nM at JAK2 (setting [1]) and 500 to 5000 nM at ROCK I (setting [1]).

On to `CN(CCO)c1cccc(-c2ccnc3[nH]ccc23)n1` [compound 35, 2-(N-(6-(1H-Pyrrolo[2,3-b]pyridin-4-yl)pyridin-2-yl)-N-methylamino)ethanol], for which the Ki was 500 to 5000 nM on JAK3 (enzyme inhibition, Table 5); 500 to 5000 nM on JAK2 (enzyme inhibition, Table 5); < 500 nM at ROCK I (setting [2]).

For `CC(=O)c1ccccc1-c1ccnc2[nH]ccc12` [compound 213], the Ki on JAK3 (setting [1]) is > 5000 nM; at JAK2 (setting [1]), > 5000 nM; at ROCK I (setting [1]), > 4000 nM.

As for `CC(C)CN(CC(C)C)C(=O)c1cc(-c2ccnc3[nH]ccc23)c[nH]1` [compound 311], the Ki at JAK3 (setting [1]), on JAK2 (setting [1]) and on ROCK I (setting [1]) was < 500 nM in each case.

With `CC(=O)N1CCN(c2cccc(-c3ccnc4[nH]ccc34)n2)CC1` [compound 26, 1-(4-(6-(1H-pyrrolo[2,3-b]pyridin-4-yl)pyridin-2-yl)piperazin-1-yl)ethanone], the Ki on JAK3 (enzyme inhibition, Table 5) was in the range of 500 to 5000 nM; on JAK2 (enzyme inhibition, Table 5), 500 to 5000 nM; at ROCK I (setting [2]) it was 500 to 5000 nM.

Consider `N#CCCN(CCC(F)(F)F)C(=O)c1cc(-c2c(F)cnc3[nH]ccc23)c[nH]1` [compound 384], for which the Ki was < 500 nM on JAK3 (setting [1]), < 500 nM at JAK2 (setting [1]) and 500 to 5000 nM at ROCK I (setting [1]).

Turning to `Cc1cc(C)cc(-c2ccnc3[nH]ccc23)c1` [compound 112, 4-(3,5-Dimethyl-phenyl)-1H-pyrrolo[2,3-b]pyridine], the Ki at JAK3 (enzyme inhibition, Table 5) was 500 to 5000 nM; at JAK2 (enzyme inhibition, Table 5), < 500 nM; at ROCK I (setting [2]) it was < 500 nM.

For `O=C(CCNc1nc(-c2ccnc3[nH]ccc23)ncc1F)NCC(F)(F)F` [compound 193], the Ki was 500 to 5000 nM at JAK3 (setting [1]), 500 to 5000 nM on JAK2 (setting [1]) and > 4000 nM at ROCK I (setting [1]).

For `N#CCC(=O)N1CC[C@H](Nc2c(Cl)cnc3[nH]ccc23)C1` [compound 191], the Ki on JAK3 (setting [1]) was < 500 nM; at JAK2 (setting [1]), < 500 nM; at ROCK I (setting [1]), > 4000 nM.

Take `C#CCN(C)C(=O)c1cc(-c2ccnc3[nH]ccc23)c[nH]1` [compound 307]: the Ki at JAK3 (setting [1]), at JAK2 (setting [1]) and at ROCK I (setting [1]) was < 500 nM in each case.

For the compound `CCN(Cc1ccccc1)C(=O)c1cc(-c2c(F)cnc3[nH]ccc23)c[nH]1` [compound 395], the Ki at JAK3 (setting [1]) is < 500 nM; on JAK2 (setting [1]) it was < 500 nM; on ROCK I (setting [1]) it was 500 to 5000 nM.

`C=CCN(CC=C)C(=O)c1ccc(-c2ccnc3[nH]ccc23)s1` [compound 315]: the Ki at JAK3 (setting [1]), on JAK2 (setting [1]) and on ROCK I (setting [1]) was < 500 nM throughout.

`CCCN(CCC#N)C(=O)c1cc(-c2c(Cl)cnc3[nH]ccc23)c[nH]1` [compound 335]: the Ki at JAK3 (setting [1]) is < 500 nM; on JAK2 (setting [1]) it was < 500 nM; on ROCK I (setting [1]), 500 to 5000 nM.

For the compound `Nc1ccccc1-c1ccnc2[nH]ccc12` [compound 119], the Ki on JAK3 (enzyme inhibition, Table 5) was > 5000 nM; at JAK2 (enzyme inhibition, Table 5), > 5000 nM; on ROCK I (setting [2]), 500 to 5000 nM.

On to `CC(C)C[C@@H](CO)Nc1cccc(-c2ccnc3[nH]ccc23)n1` [compound 59, (S)-2-(6-(1H-Pyrrolo[2,3-b]pyridin-4-yl)pyridin-2-ylamino)-4-methylpentan-1-ol], for which the Ki is > 5000 nM at JAK3 (enzyme inhibition, Table 5); > 5000 nM on JAK2 (enzyme inhibition, Table 5); 500 to 5000 nM on ROCK I (setting [2]).

As to `O=C(c1csc(-c2ccnc3[nH]ccc23)n1)N(CC1CC1)CC(F)(F)F` [compound 406], the Ki on JAK3 (setting [1]), at JAK2 (setting [1]) and on ROCK I (setting [1]) was < 500 nM in each case.

Consider `COC(=O)N1CC[C@H](Nc2c(Cl)cnc3[nH]ccc23)C1` [compound 166], for which the figures for the Ki at JAK3 (setting [1]), on JAK2 (setting [1]) and on ROCK I (setting [1]) were 500 to 5000 nM, < 500 nM and > 4000 nM, respectively.

Take `OCc1cccc(-c2ccnc3[nH]ccc23)c1` [compound 49, [3-(1H-Pyrrolo[2,3-b]pyridin-4-yl)-phenyl]-methanol]: the Ki was < 500 nM at JAK3 (enzyme inhibition, Table 5); 500 to 5000 nM at JAK2 (enzyme inhibition, Table 5); < 500 nM on ROCK I (setting [2]).

For `N#CCCNC(=O)c1cc(-c2ccnc3[nH]ccc23)c[nH]1` [compound 296], the Ki at JAK3 (setting [1]), on JAK2 (setting [1]) and at ROCK I (setting [1]) was < 500 nM in each case.

As for `N#Cc1ccc(-c2ccnc3[nH]ccc23)s1` [compound 108, 5-(1H-Pyrrolo[2,3-b]pyridin-4-yl)-thiophene-2-carbonitrile], the Ki is < 500 nM at JAK3 (enzyme inhibition, Table 5); < 500 nM at JAK2 (enzyme inhibition, Table 5); < 500 nM on ROCK I (setting [2]).

In the case of `N#CCC(=O)N1CC=C(c2ccnc3[nH]ccc23)CC1` [compound 66], the Ki was 500 to 5000 nM on JAK3 (enzyme inhibition, Table 5); < 500 nM on JAK2 (enzyme inhibition, Table 5); < 500 nM on ROCK I (setting [2]).

In the case of `NC(=O)C1CCCN1C(=O)c1cc(-c2c(Cl)cnc3[nH]ccc23)c[nH]1` (stereo not drawn) [compound 352], the Ki at JAK3 (setting [1]) was < 500 nM; at JAK2 (setting [1]), < 500 nM; on ROCK I (setting [1]) it was > 4000 nM.
